According to ChEMBL document CHEMBL1131871, “Piperidinylpyrroles: design, synthesis and binding properties of novel and selective dopamine D4 receptor ligands” (Bioorg Med Chem Lett, 1999):

Key:
[1] = target: T1, D(2) dopamine receptor (Homo sapiens, UniProt P14416); assay: Displacement of [3H]spiperone from human Dopamine receptor D2S expressed in CHO cells; assay type: cell-based
[2] = target: D(3) dopamine receptor (Homo sapiens, UniProt P35462); assay: Displacement of [3H]spiperone from human Dopamine receptor D3 expressed in CHO cells; assay type: cell-based
D(3) dopamine receptor, sequence (P35462 whole entry): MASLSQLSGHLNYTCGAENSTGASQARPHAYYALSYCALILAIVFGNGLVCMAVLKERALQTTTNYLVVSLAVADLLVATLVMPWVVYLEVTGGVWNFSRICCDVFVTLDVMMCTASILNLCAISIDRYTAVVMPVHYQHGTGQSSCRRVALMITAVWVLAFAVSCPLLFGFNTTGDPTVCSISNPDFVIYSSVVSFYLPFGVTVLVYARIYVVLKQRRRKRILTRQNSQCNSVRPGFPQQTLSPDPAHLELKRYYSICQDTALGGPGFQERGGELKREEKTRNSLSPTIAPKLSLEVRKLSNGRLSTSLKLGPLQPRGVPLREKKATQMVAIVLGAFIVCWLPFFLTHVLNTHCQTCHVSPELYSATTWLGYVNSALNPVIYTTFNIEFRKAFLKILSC

[3] = target: T1, D(2) dopamine receptor; assay: Displacement of [3H]spiperone from human Dopamine receptor D2L expressed in CHO cells; assay type: cell-based
[4] = target: D(1A) dopamine receptor (Bos taurus, UniProt Q95136); assay: Displacement of [3H]SCH-23390 from bovine striatal membrane Dopamine receptor D1
D(1A) dopamine receptor, sequence (Q95136 whole entry): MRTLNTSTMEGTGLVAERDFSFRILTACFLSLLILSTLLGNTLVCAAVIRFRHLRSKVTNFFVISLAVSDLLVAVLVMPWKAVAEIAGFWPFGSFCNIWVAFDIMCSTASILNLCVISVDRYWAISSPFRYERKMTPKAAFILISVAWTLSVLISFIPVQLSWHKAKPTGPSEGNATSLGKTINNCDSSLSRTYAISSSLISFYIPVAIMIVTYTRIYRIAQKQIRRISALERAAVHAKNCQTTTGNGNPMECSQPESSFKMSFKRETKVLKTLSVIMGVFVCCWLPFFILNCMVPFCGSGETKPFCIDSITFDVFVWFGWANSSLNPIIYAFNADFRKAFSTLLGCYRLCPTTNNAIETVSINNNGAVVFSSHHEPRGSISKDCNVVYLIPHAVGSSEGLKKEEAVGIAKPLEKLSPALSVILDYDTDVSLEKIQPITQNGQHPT

[5] = target: T2, D(4) dopamine receptor (Homo sapiens, UniProt P21917); assay: Displacement of [3H]spiperone from human Dopamine receptor D4.4 expressed in CHO cells; assay type: cell-based
T2 sequence (P21917 whole entry): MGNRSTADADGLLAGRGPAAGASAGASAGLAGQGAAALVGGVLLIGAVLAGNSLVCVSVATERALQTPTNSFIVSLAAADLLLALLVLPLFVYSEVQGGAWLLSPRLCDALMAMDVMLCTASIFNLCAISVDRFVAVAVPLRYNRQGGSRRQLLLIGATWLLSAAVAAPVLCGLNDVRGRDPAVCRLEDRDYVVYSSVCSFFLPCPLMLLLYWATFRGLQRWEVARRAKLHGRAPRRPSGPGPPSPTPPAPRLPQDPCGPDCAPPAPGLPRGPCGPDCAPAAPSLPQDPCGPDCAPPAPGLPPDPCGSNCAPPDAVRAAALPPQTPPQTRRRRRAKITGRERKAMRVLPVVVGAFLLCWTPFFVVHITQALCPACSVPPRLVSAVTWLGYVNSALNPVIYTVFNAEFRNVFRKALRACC

T1 sequence (P14416 whole entry): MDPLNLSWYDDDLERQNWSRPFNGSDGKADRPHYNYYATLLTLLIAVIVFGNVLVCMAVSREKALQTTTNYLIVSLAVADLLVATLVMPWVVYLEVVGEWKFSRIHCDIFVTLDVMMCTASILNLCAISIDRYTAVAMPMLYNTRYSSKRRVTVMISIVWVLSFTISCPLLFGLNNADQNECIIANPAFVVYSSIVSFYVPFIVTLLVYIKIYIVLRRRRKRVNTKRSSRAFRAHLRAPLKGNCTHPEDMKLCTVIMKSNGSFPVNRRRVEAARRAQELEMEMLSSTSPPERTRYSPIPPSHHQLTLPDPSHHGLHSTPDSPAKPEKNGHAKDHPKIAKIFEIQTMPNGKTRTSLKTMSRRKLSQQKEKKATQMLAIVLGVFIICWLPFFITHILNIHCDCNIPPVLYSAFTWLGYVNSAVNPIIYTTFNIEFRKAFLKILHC

| SMILES | Ki [1] | Ki [2] | Ki [3] | Ki [4] | Ki [5] |
| --- | --- | --- | --- | --- | --- |
| N#CC(C#N)=Cc1cccn1C1CCN(Cc2ccccc2)CC1 | 7.8 µM | 5.1 µM | 11 µM | 15 µM | 0.28 µM |
| O=Cc1ccn(C2CCN(Cc3ccccc3)CC2)c1 | 65 µM | 31 µM | 49 µM | 61 µM | 0.96 µM |
| c1ccc(CN2CCC(n3ccc(-c4cnco4)c3)CC2)cc1 | 3.2 µM | 6.8 µM | 3.4 µM | 39 µM | 0.13 µM |
| O=Cc1cccn1C1CCN(Cc2ccccc2)CC1 | 1.5 µM | 2.5 µM | 1.4 µM | 5.8 µM | 0.2 µM |
| Ic1cccn1C1CCN(Cc2ccccc2)CC1 | 5.3 µM | 2.6 µM | 8.5 µM | 11 µM | 1.5 µM |
| N#CC(C#N)=Cc1ccn(C2CCN(Cc3ccccc3)CC2)c1 | 18 µM | 7 µM | 13 µM | 14 µM | 0.23 µM |
| c1ccc(CN2CCC(n3cccc3-c3cnco3)CC2)cc1 | 0.32 µM | 0.77 µM | 0.61 µM | 10 µM | 0.063 µM |
| c1ccc(CN2CCC(n3cccc3)CC2)cc1 | 9.8 µM | 15 µM | 8.5 µM | 34 µM | 1.1 µM |
| C(#Cc1cccn1C1CCN(Cc2ccccc2)CC1)c1ccccc1 | 8.3 µM | 8.7 µM | 10 µM | 16 µM | 3.3 µM |
| C[Si](C)(C)C#Cc1cccn1C1CCN(Cc2ccccc2)CC1 | 4.9 µM | 7.7 µM | 6.2 µM | 14 µM | 2.7 µM |
| C#Cc1cccn1C1CCN(Cc2ccccc2)CC1 | 6.3 µM | 7.9 µM | 6.6 µM | 14 µM | 0.94 µM |
